# Source: patent US20260092039A1, “DUAL INHIBITORS FOR THE TREATMENT OF ALZHEIMER'S DISEASE” (UNIVERSITAT DE BARCELONA, priority 2023, published 2026)
# Key:
# [1] = biological target: T1, human recombinant glutaminyl cyclase (hQC) (Homo sapiens, UniProt Q16769); assay: In vitro determination of human QC inhibitory activity (SensoLyte Green Glutaminyl Cyclase Activity Assay Kit); type: biochemical
# T1 construct: purchased Eurogentec AS-72230
# Procedure: Basic statistical analysis was performed.
# [2] = Parallel artificial membrane permeation assay for blood-brain barrier (PAMPA-BBB); type: in vitro ADME, porcine; conditions: for Papp: pig, PBS:EtOH (70:30), read-out: Blood-brain barrier permeability Pe; for CNS prediction: predictive penetration in the CNS from Pe
# Procedure: A parallel artificial membrane permeation assay for blood-brain barrier (PAMPA-BBB) was used to evaluate the brain penetration of compounds of formula I, following the method described by L. Di et al., “High throughput artificial membrane permeability assay for blood-brain barrier”, European Journal of Medicinal Chemistry 2003, vol. 38. pp. 223-232. The in vitro permeability (Pe) of the test compounds through a lipid extract of porcine brain membrane was determined. Assayed compounds were tested using a mixture of PBS:EtOH (70:30). Assay validation was made by comparing the experimental and reported permeability values of a set of fourteen commercial drugs and a lineal correlation between experimental and reported permeability values of the fourteen commercial drugs was obtained (y=1.678 x−1.447; R^2=0.9313). From this equation and taking into account the limits established by Di et al. for BBB permeation, the ranges of permeability were established, as follows. Compounds of high BBB permeation (CNS+): Pe (10^−6 cm s^−1)>5.26; compounds of low BBB permeation (CNS−): Pe (10^−6 cm s^−1)<1.91; and compounds of uncertain BBB permeation (CNS+/−): 5.26>Pe (10^−6 cm s^−1)>1.91. The permeability results are averages of three different experiments in triplicate and a predictive penetration in the CNS is also given (Table 5).
# [3] = biological target: T2, recombinant human sEH (hsEH) (Homo sapiens, UniProt P34913); assay: In vitro determination of sEH inhibitory activity (fluorescent PHOME assay)
# T2 sequence (P34913 1-555): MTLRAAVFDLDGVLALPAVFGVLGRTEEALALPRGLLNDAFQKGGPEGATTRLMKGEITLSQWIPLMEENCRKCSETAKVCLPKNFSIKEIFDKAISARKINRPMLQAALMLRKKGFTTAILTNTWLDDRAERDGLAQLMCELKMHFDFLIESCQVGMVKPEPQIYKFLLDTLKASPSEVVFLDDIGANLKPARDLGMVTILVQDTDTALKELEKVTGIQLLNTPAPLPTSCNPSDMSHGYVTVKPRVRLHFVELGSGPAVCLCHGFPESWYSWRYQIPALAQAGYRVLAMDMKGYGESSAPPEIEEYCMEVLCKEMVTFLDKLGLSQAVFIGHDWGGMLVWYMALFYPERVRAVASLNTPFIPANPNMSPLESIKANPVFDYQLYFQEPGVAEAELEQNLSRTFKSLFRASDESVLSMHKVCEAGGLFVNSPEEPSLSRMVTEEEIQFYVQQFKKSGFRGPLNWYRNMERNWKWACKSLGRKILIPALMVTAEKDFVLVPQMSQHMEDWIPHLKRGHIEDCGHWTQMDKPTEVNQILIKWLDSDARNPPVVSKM
# Procedure: Control compound (TPPU): N-[1-(1-Oxopropyl)-4-piperidinyl]-N′-[4-(trifluoromethoxy)phenyl]urea.
# Five μL of DMSO were added to background and positive control wells, and then 5 μL of inhibitor solution were added in the inhibitor wells. Five μL of the solution of hsEH were added to the positive control and inhibitor wells and the mixture was stirred. A 1/21 dilution of the solution of PHOME with assay buffer was prepared according to the final volume required, and then 105 μL of each well were added. The plate was carefully shaken for 10 seconds and was incubated for 5 minutes at room temperature. […] The intensity of fluorescence was used to analyze and calculate the IC50 values. Results were obtained by regression analysis from at least three data points in a linear region of the curve. IC50 values are average of minimum three independent replicates.
# T1 sequence (Q16769 29-361): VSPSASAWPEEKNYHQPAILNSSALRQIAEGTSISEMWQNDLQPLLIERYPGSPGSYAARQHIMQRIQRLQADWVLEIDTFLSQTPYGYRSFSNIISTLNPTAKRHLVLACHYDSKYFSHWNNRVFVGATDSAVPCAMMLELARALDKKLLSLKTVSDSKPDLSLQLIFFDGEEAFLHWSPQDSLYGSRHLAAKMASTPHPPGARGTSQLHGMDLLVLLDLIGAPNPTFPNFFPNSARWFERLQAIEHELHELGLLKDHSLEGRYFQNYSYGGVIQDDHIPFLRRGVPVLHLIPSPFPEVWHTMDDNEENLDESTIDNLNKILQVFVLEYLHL
IC50 [1],Papp [2],IC50 [3],SMILES,CNS prediction [2]
540 nM,7.5 ×10⁻⁶ cm/s,103 nM,"Cc1cncn1CCCNC(=O)NC12CC3(C)C4(C)CC1CC4(C)C3(C)C2 [Iv, 1-[3-(5-methyl-1H-imidazol-1-yl)propyl]-3-(3,4,8,9-tetramethyltetracyclo[4.4.0.0^3,9.0^4,8]decan-1-yl)urea]",CNS+ (Compounds of high BBB permeation (CNS+): Pe (10^−6 cm s^−1)>5.26)
5200 nM,9.4 ×10⁻⁶ cm/s,45 nM,"O=C(NCCCn1ccnc1)NC1C2CC3CC(C2)CC1C3 (stereo not shown) [Ij, 1-[3-(1H-imidazol-1-yl)propyl]-3-(adamantan-2-yl)urea]",CNS+ (Compounds of high BBB permeation (CNS+): Pe (10^−6 cm s^−1)>5.26)
1450 nM,13 ×10⁻⁶ cm/s,95 nM,"Cc1cncn1CCCNC(=O)NCCC1C2CC3CC(C2)CC1C3 (stereo not shown) [Ip, 1-[2-(adamantan-2-yl)ethyl]-3-[3-(5-methyl-1H-imidazol-1-yl)propyl]urea]",CNS+ (Compounds of high BBB permeation (CNS+): Pe (10^−6 cm s^−1)>5.26)
730 nM,14.1 ×10⁻⁶ cm/s,9 nM,"Cc1cncn1CCCNC(=O)NCC12CC3CC(CC(C3)C1)C2 [Ik, 1-[(adamantan-1-yl)methyl]-3-[3-(5-methyl-1H-imidazol-1-yl)propyl]urea]",CNS+ (Compounds of high BBB permeation (CNS+): Pe (10^−6 cm s^−1)>5.26)
